{
  "source": "paper PMC11990670",
  "about": "“Exploring the Volatility, Phase Transitions, and Solubility Properties of Five Halogenated Benzaldehydes” (Molecules, 2025)",
  "key": {"[1]": {"experiment": "Vapor pressures of crystalline and liquid phases, static method with capacitance diaphragm gauge", "format": "physicochemical", "from_the_text": "A previously described and tested static apparatus was used to measure the vapor pressures of the condensed phases (both crystalline and liquid) of the five compounds studied. This installation employs MKS capacitance diaphragm absolute gauges, operating at self-regulated constant temperatures. Our lab is equipped with three pressure gauges. Gauge I, a Baratron 631A01TBEH (MKS instruments, Andover, MA, USA) (Tgauge = 423 K), measures pressures in the range of 0.5 to 1.3 × 10^2 Pa and operates within a temperature range of 253 to 413 K. Gauge II, the instrument used in this study, is a Baratron 631A11TBFP (MKS instruments, Andover, MA, USA) (Tgauge = 473 K), capable of measuring pressures from 0.5 to 1.3 × 10^3 Pa within a temperature range of 253 to 433 K and gauge III, a Baratron 631D02T8FP (MKS instruments, Andover, MA, USA) (Tgauge = 473 K), designed to measure pressures between 0.5 Pa and 2.6 × 10^2 Pa, also within a temperature range of 253 to 433 K. The temperatures of the samples were measured using a Pt100 platinum resistance thermometer, calibrated by comparison with a standard platinum resistance thermometer (SPRT: Tinsley Precision Instruments Ltd, London, England). To prevent vapor condensation, the tubing connecting the cell containing the condensed sample to the pressure gauge is maintained at a temperature higher than that of the sample but lower than that of the gauge. The uncertainty in temperature measurements is estimated to be u(T/K) = ±0.01, and the expanded uncertainties (0.95 confidence level, k = 2) in pressure measurements are given by the expression U(p/Pa) = 0.1 + 0.0050 (p/Pa) for the gauge used. Samples were thoroughly degassed before starting the vapor pressure measurements, ensuring consistent readings at specific temperatures and eliminating any residual volatile substances, including water."}, "[2]": {"experiment": "Equilibrium solubility in water, saturation shake-flask method with UV-vis", "settings": "25 °C, thermodynamic from solid", "procedure": "(§1) The concentration was measured by absorbances at 260 nm for 4-chlorobenzaldehyde, 263 nm for 4-bromobenzaldehyde and 2,4-dichlorobenzaldehyde, 297 nm for 2,6-dichlorobenzaldehyde, and 306 nm for 2,3-dichlorobenzaldehyde, using a Cary-60 UV–vis (Agilent) spectrophotometer. X-ray diffraction (XRD) and differential scanning calorimetry of residual solids were used to identify the eventual phase transformations. The purified samples of each compound studied were used for all experimental determinations, including the solubility measurements. After reaching the equilibrium, the residual solid was dried and analyzed using both DSC and XRD. The melting properties obtained from DSC were compared with those of the original purified sample, following the same procedure for the XRD analysis. […] As an example, the supporting information includes two thermograms and two XRD patterns for 2,4-dichlorobenzaldehyde (Figures S1 and S2). […] Equation (4) was derived from Equation (5), which is widely applicable to the solubility of solids.(4) ΔhydrGm°/kJ·mol^−1=9.17−5.71·log10(Scr/mol·m^−3)−ΔcrgGm°/kJ·mol^−1 (5) S=p^°/RTexpΔcrgGm°+ΔhydrGm°/−RT\n(§2) An excess amount of each compound was added to a known volume of water in triplicate. […] After stirring, the solid phase was allowed to settle for 2 h. The pH of the saturated solutions was measured using a Mettler Toledo (Greifensee, Switzerland) FiveEasy F20 pH Meter calibrated with standard aqueous solutions (pH 7.00 and 4.01 or 10.1). Those solutions were then filtered through a 0.22 μm syringe hydrophilic filter (13 mm, PTFE, Labfil, Zhejiang, China) and diluted to the required concentration. The concentration of the compounds, expressed in molarity, was measured by absorbances using a Cary-60 UV–vis spectrophotometer (Agilent Technologies, Santa Clara, CA, USA) at 298.15 K (single cell Peltier accessory, ±0.15 K). The results reported in Table 6 are averaged from at least three replicates. Calibration was performed using solutions of known concentrations of each substance in water. These solutions were prepared by adding a precise mass of the substance and a specific volume of the solvent to a flask, then mixing until the substance was fully dissolved. The absorbance of these solutions was measured, and calibration curves were created."}, "[3]": {"experiment": "Gibbs energy of hydration and Henry's law volatility constant calculated from sublimation and solubility data", "settings": "25 °C", "procedure": "as §1\nThe standard states in Equation (5) are p° = 1 × 10^5 Pa for ΔcrgGm° , c° = 1 mol·L^−1 for ΔhydrGm° and s° = 1 mol·m^−3 for solubility. Using the experimental results of ΔhydrGm° , calculated through Equation (4), the values of Henry’s law volatility constants, KHpc, were determined in the logarithm form by Equation (6), that was adapted from Modarressi et al.."}, "[4]": {"experiment": "pH of the saturated aqueous solutions", "format": "physicochemical", "settings": "saturated aqueous solution of the solubility experiment", "procedure": "as §1, §2"}},
  "note": "Marks after values point to notes of the source that are not given here.",
  "data": [
    {"smiles": "O=Cc1ccc(Cl)cc1Cl", "note": "[2,4-Dichlorobenzaldehyde]", "values": [
      {"measurement": "vapor pressure p", "setting": "[1]; crystalline phase, T = 285.78 K", "value": 0.64, "unit": "Pa"},
      {"measurement": "vapor pressure p", "setting": "[1]; crystalline phase, T = 287.68 K", "value": 0.80, "unit": "Pa"},
      {"measurement": "vapor pressure p", "setting": "[1]; crystalline phase, T = 289.73 K", "value": 1.02, "unit": "Pa"},
      {"measurement": "vapor pressure p", "setting": "[1]; crystalline phase, T = 291.36 K", "value": 1.23, "unit": "Pa"},
      {"measurement": "vapor pressure p", "setting": "[1]; crystalline phase, T = 293.15 K", "value": 1.50, "unit": "Pa"},
      {"measurement": "vapor pressure p", "setting": "[1]; crystalline phase, T = 294.83 K", "value": 1.81, "unit": "Pa"},
      {"measurement": "vapor pressure p", "setting": "[1]; crystalline phase, T = 296.85 K", "value": 2.29, "unit": "Pa"},
      {"measurement": "vapor pressure p", "setting": "[1]; crystalline phase, T = 298.81 K", "value": 2.85, "unit": "Pa"},
      {"measurement": "vapor pressure p", "setting": "[1]; crystalline phase, T = 301.19 K", "value": 3.67, "unit": "Pa"},
      {"measurement": "vapor pressure p", "setting": "[1]; crystalline phase, T = 303.16 K", "value": 4.55, "unit": "Pa"},
      {"measurement": "vapor pressure p", "setting": "[1]; crystalline phase, T = 305.23 K", "value": 5.65, "unit": "Pa"},
      {"measurement": "vapor pressure p", "setting": "[1]; crystalline phase, T = 307.12 K", "value": 6.86, "unit": "Pa"},
      {"measurement": "vapor pressure p", "setting": "[1]; crystalline phase, T = 308.88 K", "value": 8.29, "unit": "Pa"},
      {"measurement": "vapor pressure p", "setting": "[1]; crystalline phase, T = 310.95 K", "value": 10.12, "unit": "Pa"},
      {"measurement": "vapor pressure p", "setting": "[1]; crystalline phase, T = 313.23 K", "value": 12.78, "unit": "Pa"},
      {"measurement": "vapor pressure p", "setting": "[1]; crystalline phase, T = 315.25 K", "value": 15.58, "unit": "Pa"},
      {"measurement": "vapor pressure p", "setting": "[1]; crystalline phase, T = 317.80 K", "value": 20.05, "unit": "Pa"},
      {"measurement": "vapor pressure p", "setting": "[1]; crystalline phase, T = 320.56 K", "value": 26.18, "unit": "Pa"},
      {"measurement": "vapor pressure p", "setting": "[1]; crystalline phase, T = 322.93 K", "value": 32.84, "unit": "Pa"},
      {"measurement": "vapor pressure p", "setting": "[1]; crystalline phase, T = 325.24 K", "value": 40.77, "unit": "Pa"},
      {"measurement": "vapor pressure p", "setting": "[1]; crystalline phase, T = 327.66 K", "value": 50.25, "unit": "Pa"},
      {"measurement": "vapor pressure p", "setting": "[1]; crystalline phase, T = 329.75 K", "value": 60.90, "unit": "Pa"},
      {"measurement": "vapor pressure p", "setting": "[1]; crystalline phase, T = 331.73 K", "value": 72.78, "unit": "Pa"},
      {"measurement": "vapor pressure p", "setting": "[1]; crystalline phase, T = 333.66 K", "value": 85.89, "unit": "Pa"},
      {"measurement": "vapor pressure p", "setting": "[1]; crystalline phase, T = 335.72 K", "value": 102.0, "unit": "Pa"},
      {"measurement": "vapor pressure p", "setting": "[1]; crystalline phase, T = 337.64 K", "value": 119.1, "unit": "Pa"},
      {"measurement": "vapor pressure p", "setting": "[1]; crystalline phase, T = 339.73 K", "value": 141.9, "unit": "Pa"},
      {"measurement": "vapor pressure p", "setting": "[1]; crystalline phase, T = 341.66 K", "value": 166.2, "unit": "Pa"},
      {"measurement": "vapor pressure p", "setting": "[1]; liquid phase, T = 344.36 K", "value": 207.6, "unit": "Pa"},
      {"measurement": "vapor pressure p", "setting": "[1]; liquid phase, T = 346.33 K", "value": 233.6, "unit": "Pa"},
      {"measurement": "vapor pressure p", "setting": "[1]; liquid phase, T = 348.33 K", "value": 261.6, "unit": "Pa"},
      {"measurement": "vapor pressure p", "setting": "[1]; liquid phase, T = 349.66 K", "value": 282.0, "unit": "Pa"},
      {"measurement": "vapor pressure p", "setting": "[1]; liquid phase, T = 351.41 K", "value": 310.8, "unit": "Pa"},
      {"measurement": "vapor pressure p", "setting": "[1]; liquid phase, T = 353.17 K", "value": 342.8, "unit": "Pa"},
      {"measurement": "vapor pressure p", "setting": "[1]; liquid phase, T = 355.39 K", "value": 390.3, "unit": "Pa"},
      {"measurement": "vapor pressure p", "setting": "[1]; liquid phase, T = 357.59 K", "value": 437.4, "unit": "Pa"},
      {"measurement": "vapor pressure p", "setting": "[1]; liquid phase, T = 359.46 K", "value": 479.4, "unit": "Pa"},
      {"measurement": "vapor pressure p", "setting": "[1]; liquid phase, T = 361.34 K", "value": 533.0, "unit": "Pa"},
      {"measurement": "vapor pressure p", "setting": "[1]; liquid phase, T = 363.54 K", "value": 603.2, "unit": "Pa"},
      {"measurement": "vapor pressure p", "setting": "[1]; liquid phase, T = 365.63 K", "value": 668.2, "unit": "Pa"},
      {"measurement": "vapor pressure p", "setting": "[1]; liquid phase, T = 367.44 K", "value": 733.6, "unit": "Pa"},
      {"measurement": "vapor pressure p", "setting": "[1]; liquid phase, T = 369.34 K", "value": 810.6, "unit": "Pa"},
      {"measurement": "vapor pressure p", "setting": "[1]; liquid phase, T = 371.29 K", "value": 885.4, "unit": "Pa"},
      {"measurement": "vapor pressure p", "setting": "[1]; liquid phase, T = 373.62 K", "value": 998.4, "unit": "Pa"},
      {"measurement": "vapor pressure p", "setting": "[1]; liquid phase, T = 375.74 K", "value": 1100, "unit": "Pa"},
      {"measurement": "vapor pressure p", "setting": "[1]; supercooled liquid, T = 324.34 K", "value": "57.72 ^d Pa"},
      {"measurement": "vapor pressure p", "setting": "[1]; supercooled liquid, T = 326.40 K", "value": "66.54 ^d Pa"},
      {"measurement": "vapor pressure p", "setting": "[1]; supercooled liquid, T = 328.22 K", "value": "75.25 ^d Pa"},
      {"measurement": "vapor pressure p", "setting": "[1]; supercooled liquid, T = 330.22 K", "value": "85.67 ^d Pa"},
      {"measurement": "vapor pressure p", "setting": "[1]; supercooled liquid, T = 332.21 K", "value": "97.72 ^d Pa"},
      {"measurement": "vapor pressure p", "setting": "[1]; supercooled liquid, T = 334.17 K", "value": "110.6 ^d Pa"},
      {"measurement": "vapor pressure p", "setting": "[1]; supercooled liquid, T = 336.16 K", "value": "125.6 ^d Pa"},
      {"measurement": "vapor pressure p", "setting": "[1]; supercooled liquid, T = 338.15 K", "value": "141.4 ^d Pa"},
      {"measurement": "vapor pressure p", "setting": "[1]; supercooled liquid, T = 340.44 K", "value": "163.3 ^d Pa"},
      {"measurement": "vapor pressure p", "setting": "[1]; supercooled liquid, T = 342.29 K", "value": 184.1, "unit": "Pa"},
      {"measurement": "solubility at 72 h", "setting": "[2]", "value": 821, "unit": "µM"},
      {"measurement": "Gibbs energy of hydration ΔhydrGm°", "setting": "[3]; calculated by Equation (4)", "value": -16.5, "unit": "kJ/mol"},
      {"measurement": "log10(KHpc/kPa·m^3·mol^−1) Henry's law volatility constant", "setting": "[3]; calculated by Equation (6)", "value": "−2.50"},
      {"measurement": "KHpc×10^3 Henry's law volatility constant", "setting": "[3]; value is KHpc multiplied by 10^3", "value": 3.16, "unit": "kPa·m^3·mol^−1"},
      {"measurement": "pH of the saturated solution", "setting": "[4]", "value": 6.57}
    ]}
  ]
}
